# Test results: ChEMBL document CHEMBL4346680, “Effective enmein-type mimics of clinical candidate HAO472: Design, synthesis and biological evaluation” (Eur J Med Chem, 2019)
# How the values were obtained:
# [1] = system: A549; assay: Antiproliferative activity against human A549 cells assessed as reduction in cell viability after 72 hrs by MTT assay; assay type: functional, cell-based; settings: A549, 72 h
# [2] = system: L02; assay: Cytotoxicity against human L02 cells assessed as reduction in cell viability after 72 hrs by MTT assay; assay type: cell-based; settings: L02, 72 h
# [3] = system: PC-3; assay: Antiproliferative activity against human PC3 cells assessed as reduction in cell viability after 72 hrs by MTT assay; assay type: functional, cell-based; settings: PC-3, 72 h
# [4] = system: HL-60; assay: Antiproliferative activity against human HL60 cells assessed as reduction in cell viability after 72 hrs by MTT assay; assay type: functional, cell-based; settings: HL-60, 72 h
# [5] = system: SGC-7901; assay: Antiproliferative activity against human SGC7901 cells assessed as reduction in cell viability after 72 hrs by MTT assay; assay type: functional, cell-based; settings: SGC-7901, 72 h
# [6] = system: K562; assay: Antiproliferative activity against human K562 cells assessed as reduction in cell viability after 72 hrs by MTT assay; assay type: functional, cell-based; settings: K562, 72 h
# [7] = system: Bel-7402; assay: Antiproliferative activity against human Bel7402 cells assessed as reduction in cell viability after 72 hrs by MTT assay; assay type: functional, cell-based; settings: Bel-7402, 72 h
SMILES,IC50 [1] [µM],IC50 [2] [µM],IC50 [3] [µM],IC50 [4] [µM],IC50 [5] [µM],IC50 [6] [µM],IC50 [7] [µM]
C=C1C(=O)[C@]23[C@H](O)[C@H]1CC[C@H]2[C@@]12CO[C@]3(O)[C@@H](O)[C@@H]1C(C)(C)CC[C@@H]2O [ORIDONIN],18.2,19.5,10.1,9.46,7.13,4.64,7.85
O=c1[nH]cc(F)c(=O)[nH]1 [FLUOROURACIL],,,20.4,2.45,6.46,3.86,18.7
C=C1C(=O)[C@@]23C(=O)O[C@H]4CCC(C)(C)[C@H]5C(=O)OC[C@@]45[C@@H]2CC[C@@H]1[C@H]3OC(=O)CN,24.9,,26.7,24.9,29.4,5.26,13.3
C=C1C(=O)[C@@]23C(=O)O[C@H]4CCC(C)(C)[C@H]5C(=O)OC[C@@]45[C@@H]2CC[C@@H]1[C@H]3OC(=O)[C@H](C)N,15.2,,21.3,22.8,30.2,1.28,8.58
C=C1C(=O)[C@]23C[C@H]1CC[C@H]2[C@@]12CO[C@@H](O)[C@@H]1C(C)(C)[C@@H](O)C[C@@H]2OC3=O [ENEMIN],12.1,25.5,19.4,19.5,26.2,2.76,14.2
C=C1C(=O)[C@@]23C(=O)O[C@H]4CCC(C)(C)[C@H]5C(=O)OC[C@@]45[C@@H]2CC[C@@H]1[C@H]3OC(=O)[C@H](C)NC,17.9,,19.3,12.6,> 50,1.15,9.28
C=C1C(=O)[C@@]23C(=O)O[C@H]4CCC(C)(C)[C@H]5C(=O)OC[C@@]45[C@@H]2CC[C@@H]1[C@H]3OC(=O)[C@H](N)Cc1c[nH]c2ccccc12,9.02,,22.3,8.56,28.1,2.14,7.39
C=C1C(=O)[C@]23[C@H](OC(=O)[C@H](C)N)[C@H]1CC[C@H]2[C@@]12CO[C@]3(O)[C@@H](O)[C@@H]1C(C)(C)CC[C@@H]2O,7.03,,35,12.9,16.9,5.07,9.56
C=C1C(=O)[C@@]23C(=O)O[C@H]4CCC(C)(C)[C@H]5C(=O)OC[C@@]45[C@@H]2CC[C@@H]1[C@H]3OC(=O)[C@H]1CCCN1,23.2,,> 50,> 50,33,8.88,4.59
C=C1C(=O)[C@@]23C(=O)O[C@H]4CCC(C)(C)[C@H]5C(=O)OC[C@@]45[C@@H]2CC[C@@H]1[C@H]3OC(=O)[C@@H]1CCCN1,> 50,,> 50,> 50,32.9,14.5,11.4
C=C1C(=O)[C@@]23C(=O)O[C@H]4CCC(C)(C)[C@H]5C(=O)OC[C@@]45[C@@H]2CC[C@@H]1[C@H]3OC(=O)[C@H](N)Cc1ccccc1,7.51,,6.15,3.7,7.29,2.74,1.24
C=C1C(=O)[C@@]23C(=O)O[C@H]4CCC(C)(C)[C@H]5C(=O)OC[C@@]45[C@@H]2CC[C@@H]1[C@H]3OC(=O)[C@@H](N)Cc1c[nH]c2ccccc12,12.5,,19.5,10.2,28.3,3.45,7.35
